Measured values reported in patent US20110045033A1, “Combination of Itriglumide and Proton Pump Inhibitors in the Treatment of Gastrointestinal and Related Disorders” (priority 2005, published 2011).

Legend:
[1] = test system: acute reflux esophagitis in pylorus-ligated rats; assay: Acute reflux esophagitis in pylorus-ligated rats (macroscopic lesion index); format: in vivo, rat; parameters: key to Average Score lesions: lesion index 0 = no lesion to 6 = hemorrhage >40 mm or perforation; settings: for % Effect vs. control / Average Score lesions: 3 h after ligation; for ED50: Rattus norvegicus, intraduodenal, drug administered separately, intraduodenally, from dose-response regression line, read-out: ED50 (dose which reduces of 50% the esophagus lesions)
Procedure: Male rats of 175-200 g body weight were fasted for 24 hours prior the experiment. Water was allowed ad libitum. Under ether anaesthesia, the abdomen was incised along the midline, and both pylorus and limiting ridge (transitional region between the forestomach and corpus) were simultaneously ligated. Consequently, the total capacity of the stomach to hold gastric juice was greatly diminished, resulting in reflux of gastric juice into the esophagus. Following ligation of pylorus and limiting ridge, the test compounds were given intraduodenally (5 ml/kg), and the abdomen was closed by suturing. After 3 hours, rats were killed by ether overdose and the gastroesophageal portion was excised. The lesion in the thoracic esophagus was scored macroscopically, using a lesion index according to the following criteria: no lesion as 0; oedema as 1; reddening as 2; the length of hemorrhagic area <20 mm as 3; the length of hemorrhagic area 20-30 mm as 4; the length of hemorrhagic area 30-40 mm as 5; the length of hemorrhagic area >40 mm or perforation as 6.
The doses of the tested compounds which reduce of 50% the esophagus lesions (ED50) were calculated from the dose-response regression line.

[2] = test system: chronic model of reflux esophagitis in rats; assay: Chronic acid reflux esophagitis in rat (forestomach ligation and pyloric stenosis); format: in vivo; settings: 15 days; for Occurrence of Esophagitis: animals affected/surviving
Description: The method was according to Omura N., et al. (Scand. J gastroenterol. 1999; 34:948-953) with slight modifications.
Male Wistar rats, 10 weeks old, were kept in controlled animal room 1 week prior to use and fed with standard diet. A day before the experiment rats were deprived of food but allowed free access to water.
This model consists of gastric outlet obstruction obtained by ligation of forestomach and pyloric stenosis. Rats were operated under air/halothane anaesthesia; after opening the abdomen with a median incision, the transitional region between forestomach and the glandular portion was ligated and then the forestomach was blocked with other two ligations. Pyloric stenosis were obtained by wrapping a duodenum near the pylorus with a piece (about 2 mm) of a catheter (3.5 mm inner diameter) as a ring. The ring was closed by thermocautery and fixed to the pylorus with a nylon thread. The abdomen was closed by suturing.
After the operation the rats (10 animals per group) were deprived of diet for 48 h but had free access to water.
Drugs were administered once a day, starting on day zero, by subcutaneous injection. During the experiment body weight as well as the mortality were recorded.
The animals were killed 15 days later by overdose of ether inhalation. The abdomen was opened and the esophagus excised and placed on a cork plate. The presence and extension of esophagitis sites was evaluated by macroscopic observation. Each site of esophagitis was measured (mm of length×mm of width). Data were expressed as mm^2 of esophagitis area (mean area group).

[3] = Itriglumide 2.5 mg/kg intraduodenally
[4] = Itriglumide 5.0 mg/kg intraduodenally
[5] = Itriglumide 10 mg/kg intraduodenally
[6] = Itriglumide 20 mg/kg intraduodenally
[7] = Itriglumide 10 mg/kg s.c. once a day
[8] = Omeprazole 0.1 mg/kg intraduodenally
[9] = Omeprazole 0.3 mg/kg intraduodenally
[10] = Omeprazole 1.0 mg/kg intraduodenally
[11] = Omeprazole 3.0 mg/kg intraduodenally
[12] = Omeprazole 0.5 mg/kg s.c. once a day
[13] = Omeprazole 1 mg/kg s.c. once a day
[14] = Omeprazole 2 mg/kg s.c. once a day

SMILES: Cc1cc(C)c(NC(=O)C[C@H](CC(=O)O)c2cccc3ccccc23)c(C(=O)N2CCC3(CCCC3)CC2)c1 [Itriglumide, (R)-1-napthalenepropanoic acid-β[2[(2-(8-azaspiro[4.5.]dec-8-ylcarbonyl)4,6-dimethylphenyl]amino]-2-oxoethyl]]
- % Effect vs. control [1, 3]: 0%
- Average Score lesions [1, 3]: 5.2
- % Effect vs. control [1, 4]: 27.5%
- Average Score lesions [1, 4]: 3.7
- % Effect vs. control [1, 5]: 51.0%
- Average Score lesions [1, 5]: 2.5
- % Effect vs. control [1, 6]: 82.3%
- Average Score lesions [1, 6]: 0.9
- ED50 [1]: 9.1 mg/kg
- % Protection vs. control [2, 7]: 42.1%
- Survival Rate (%) [2, 7]: 90%
- Total average size of ulcers (mm^2) [2, 7]: 33 mm^2
- Occurrence of Esophagitis [2, 7]: 4/9

SMILES: COc1ccc2[nH]c([S+]([O-])Cc3ncc(C)c(OC)c3C)nc2c1 (centres unmarked) [Omeprazole]
- % Effect vs. control [1, 8]: 3.4%
- Average Score lesions [1, 8]: 5.6
- % Effect vs. control [1, 9]: 0%
- Average Score lesions [1, 9]: 5.8
- % Effect vs. control [1, 10]: 17.2%
- Average Score lesions [1, 10]: 4.8
- % Effect vs. control [1, 11]: 53.4%
- Average Score lesions [1, 11]: 2.7
- ED50 [1]: 4.9 mg/kg
- % Protection vs. control [2, 12]: 17.5%
- Survival Rate (%) [2, 12]: 80%
- Total average size of ulcers (mm^2) [2, 12]: 47 mm^2
- Occurrence of Esophagitis [2, 12]: 6/8
- % Protection vs. control [2, 13]: 28.0%
- Survival Rate (%) [2, 13]: 90%
- Total average size of ulcers (mm^2) [2, 13]: 41 mm^2
- Occurrence of Esophagitis [2, 13]: 6/9
- % Protection vs. control [2, 14]: 49.1%
- Survival Rate (%) [2, 14]: 90%
- Total average size of ulcers (mm^2) [2, 14]: 29 mm^2
- Occurrence of Esophagitis [2, 14]: 3/9
- ED50 ([2]; Rattus norvegicus, sc, 360 h, Omeprazole alone, s.c. once a day): 2.2 mg/kg
